Laboratory results: patent publication US7129275B2, “Compositions for treating acne comprising phytandiol amine” (Coreana Cosmetics Co., Ltd., priority 2001, dated 2006)

What was measured:
Assay in all cases: Minimum inhibitory concentration on reinforced clostridial agar
Details in all cases: 3 days at 35° C., anaerobic, complete growth inhibition
P. avidum ATCC 25577 = type: cell-based, Propionibacterium avidum
Experimental: (§1) To evaluate an antimicrobial activity of the phytandiol amine of this invention against acne pathogen, the minimum inhibitory concentration (hereinafter referred to as “MIC”) of the samples shown in Table 1 was measured as follows: The sample to be tested was added to reinforced clostridial agar medium (available from Difco Co.) in the amount of 0.001–0.1%, followed by solidification of the medium. The suspension of acne pathogenic bacteria found in Table 1 was streaked on the surface of the medium and the medium was incubated for 3 days at 35° C. under anaerobic condition.

P. acnes ATCC 6919 = type: cell-based, Propionibacterium acnes
Experimental: as §1

P. acne ATCC 11828 = type: cell-based, Propionibacterium acnes
Experimental: as §1

Row | MIC (P. avidum ATCC 25577) [%] | MIC (P. acnes ATCC 6919) [%] | MIC (P. acne ATCC 11828) [%] | Compound
1 | 0.1 | 0.1 | 0.1 | O=C(OOC(=O)c1ccccc1)c1ccccc1 [Benzoyl peroxide]
2 | 0.02 | 0.02 | 0.02 | CC[C@H]1OC(=O)[C@H](C)[C@@H](O[C@H]2C[C@@](C)(OC)[C@@H](O)[C@H](C)O2)[C@H](C)[C@@H](O[C@@H]2O[C@H](C)C[C@H](N(C)C)[C@H]2O)[C@](C)(O)C[C@@H](C)C(=O)[C@H](C)[C@@H](O)[C@]1(C)O [Erythromycin]
